Patent US7214507B2, “Plant enzymes for bioconversion” (Plant Research International B.V., priority 2001, dated 2007)
“Also recorded” adds a separate entry of the source.

Columns and labels:
[1] = test system: (+)-germacrene A hydroxylase; assay: Conversion of sesquiterpenes by a microsomal pellet of chicory in the presence of NADPH; conditions: for Conversion by the (+)-germacrene A hydroxylase containing microsomal pellet (in words): NADPH, microsomal pellet from chicory roots
Protocol: During the whole procedure the plant material was kept on ice as much as possible. After 5 times several seconds of mixing, the slurry was transferred to the cheesecloth with an additional 10 ml of extraction buffer. The cheesecloth was squeezed out and the filtrate was centrifuged (Sigma 2K15) for 20 minutes at 20,000 g and 4° C. The supernatant was poured over a funnel filled with glass wool. […] The resulting microsomal pellets (about 6) were stored under argon at −80° C.
Before incubation, 10 pellets were pottered in 30 mL of assay buffer consisting of 25 mM Tris pH 7.5), 2 mM DTT, 1 mM ascorbic acid, 5 μM FAD, 5 μM FMN and 10% (v/v) glycerol. The enzyme suspension was divided in 1 mL aliquots and incubated with 5 μL substrate solution in the presence of a 1 mM NADPH-regenerating system that consisted of 1 mM NADPH, 5 mM glucose-6-phosphate, and 1.2 IU glucose-6-phosphate dehydrogenase (all from Sigma). The initial concentration of substrate in each assay was 45 μM and all were done in duplicate. […] After 60 minutes the incubations were stopped by storing them at −20° C. in a freezer.
The enzyme assays were extracted 2 times with 1 mL 20% (v/v) ether in pentane, after the addition of 5 μM cis-nerolidol (Fluka). The organic phase was filtered through a glasswool-plugged (dimethyl chlorosilane-treated, Chrompack) Pasteur pipette that contained 0.4 gram of silica and a little anhydrous MgSO4. The pipette was rinsed with 1.5 mL ether and the extract was concentrated to approximately 50 μL under a stream of nitrogen.

(+)-costunolide synthase = biological target: T1, (+)-costunolide synthase (Cichorium intybus, UniProt G3GBK0); assay: (+)-Costunolide synthase activity, 20,000 g chicory root supernatant with germacrene acid; type: biochemical, Cichorium intybus L.; conditions: for Percentage Enzyme Activity ± SD, (+)-costunolide synthase: addition at 1 mM, 100% = sum of dehydrosaussurea lactone, saussurea lactone and leucodin peaks with 1 mM NADPH; for Conversion of substrate analogues by the (+)-costunolide synthase (in words): 20,000 g supernatant, NADPH
T1 construct: A cell free extract of chicory roots was prepared from the frozen material; from tissue; host or cells: chicory roots, desalted 20,000 g supernatant
T1 sequence (G3GBK0 1-494): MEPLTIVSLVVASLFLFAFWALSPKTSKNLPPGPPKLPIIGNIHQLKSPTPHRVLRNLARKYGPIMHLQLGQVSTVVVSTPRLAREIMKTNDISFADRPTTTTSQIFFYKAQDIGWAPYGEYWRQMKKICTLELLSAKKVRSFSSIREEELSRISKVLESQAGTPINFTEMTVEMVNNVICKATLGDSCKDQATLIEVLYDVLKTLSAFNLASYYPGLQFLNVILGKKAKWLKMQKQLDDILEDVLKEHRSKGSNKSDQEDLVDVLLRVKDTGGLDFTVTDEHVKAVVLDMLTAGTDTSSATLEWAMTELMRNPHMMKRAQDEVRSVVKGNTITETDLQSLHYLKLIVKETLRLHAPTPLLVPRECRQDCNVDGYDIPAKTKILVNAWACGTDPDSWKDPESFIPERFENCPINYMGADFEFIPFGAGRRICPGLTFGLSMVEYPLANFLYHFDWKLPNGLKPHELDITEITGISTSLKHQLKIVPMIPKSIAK
Protocol: A cell free extract of chicory roots was prepared from the frozen material in the same way as described for isolation of the germacrene A hydroxylase (Example 1), but MgCl2 was not added to the extraction buffer since the accompanying (+)-germacrene A synthase activity was not essential for the detection of (+)-costunolide synthase activity. […] DTT was omitted from the assay buffer, because SH-groups present in DTT might undergo an “Michael-type addition” to the C11–C13 exocyclic double bond of (+)-costunolide Kupchan et al., 1970). […] Incubations were also done with boiled desalted supernatant and in the absence of NADPH. The experiments were repeated with elema-1,3,11(13)-trien-12-oic acid (FIG. 2, 9) and a mixture of α- and γ-costic acid (14) that might serve as substrate analogues for the germacrene acid (4). After 1 h of incubation at 30° C., the reactions were stored in the freezer.
The organic phase was filtered through a glass-wool plugged (dimethyl chlorosilane-treated glasswool; Chrompack) Pasteur pipette that contained 0.45 g of silica and a little anhydrous MgSO4. […] Samples of 2 μL were analysed by GC-MS using an injection port temperature of 320° C. to provoke Cope rearrangement of (+)-costunolide (5). Mass spectra were recorded at 70 eV scanning from 35 to 300 atomic mass units; the GC oven temperature was programmed as described before (de Kraker et al., 1998).
To determine whether the formation of (+)-costunolide (5) from germacrene acid (4) was catalysed by a cytochrome P450-enzyme, the effect of various established cytochrome P450-inhibitors (cytochrome C, metyrapone, clotrimazole, micozanole, and amino-benzotriazole) on this reaction were tested, as well as the effect of CO or an argon atmosphere. The cofactor dependence was also investigated, i.e. NAD(P)^+ or NADH was added instead of NADPH. Experiments were carried out in a similar manner as described for the germacrene A hydroxylase in Example I using a 20,000 g supernatant and 5 μL of 0.2 mM cis-nerolidol as internal standard. Blue-light reversal of CO-inhibition was investigated with gas-mixtures of 10% O2 plus 90% N2 (blank) and 10% O2 plus 90% CO.

[2] = test system: (+)-costunolide reductase activity; assay: Formation of 11(S),13-dihydrocostunolide from (+)-costunolide by 20,000 g chicory root supernatant; type: biochemical, Cichorium intybus L.; conditions: for Reduction of the C11–C13 exocyclic double bond (in words): 20 μM substrate, NADPH
Protocol: (§1) Incubations were also done with boiled desalted supernatant and in the absence of NADPH. The experiments were repeated with elema-1,3,11(13)-trien-12-oic acid (FIG. 2, 9) and a mixture of α- and γ-costic acid (14) that might serve as substrate analogues for the germacrene acid (4). After 1 h of incubation at 30° C., the reactions were stored in the freezer.
(§2) The organic phase was filtered through a glass-wool plugged (dimethyl chlorosilane-treated glasswool; Chrompack) Pasteur pipette that contained 0.45 g of silica and a little anhydrous MgSO4. […] Samples of 2 μL were analysed by GC-MS using an injection port temperature of 320° C. to provoke Cope rearrangement of (+)-costunolide (5).
(§3) Incubations as described for the germacrene acid were also done with (+)-costunolide (30 μM) to test whether any further enzymatic conversion of this compound would occur during the incubation of germacrene acid. Parthenolide (20 μM) (FIG. 9, 17) was incubated as well since it might be an intermediate in the formation of guaianolides. […] The effect of established cytochrome P450 inhibitors and CO on the conversion of (+)-costunolide was studied, just as the effect of various pyridine nucleotide cofactors and an argon atmosphere.

leucodin biosynthesis = assay: Formation of leucodin from (+)-costunolide by 20,000 g chicory root supernatant; type: biochemical, Cichorium intybus L.
Protocol: as §1, §2, §3

[3] = atmosphere: 80% CO + 20% O2 or argon, air = 100%
[4] = pyridine nucleotide cofactor 1 mM, substrate (+)-costunolide
[5] = inhibitor 10 μM, DMSO (1%) control = 100%
[6] = inhibitor 100 μM, control = 100%

`C=C(C)C1CC=C(C)CC1` (single isomer, unassigned; (+)) [(+)-limonene] was tested, and the “Conversion by the (+)-germacrene A hydroxylase containing microsomal pellet (in words)” value [1] was “Some conversion”.
`C=C(C)[C@H]1C/C=C(\C)CC/C=C(\C)CC1` [(+)-germacrene A] was tested, and the “Subsequent oxidations into germacrene aldehyde and acid, share of the produced germacrene alcohol” value ([1]; microsomal pellet, pH 7.5, NADPH-regenerating system) was “approx. 15%”.
For `C=C(C)[C@@H]1CC[C@@]2(C)CCCC(=C)[C@@H]2C1` [(+)-β-selinene], the “Share of the added substrate that was hydroxylated” value ([1]; 50 nmol added) was “Approximately 30%”.
In the case of `CC1=CC[C@@]23[C@@H]([C@@H]12)[C@H](C(C)C)CC[C@H]3C` [(−)-(α)-Cubebene], the “Conversion by the (+)-germacrene A hydroxylase containing microsomal pellet (in words)” value [1] is reported as “not converted”.
For `[C-]#[O+]` [CO], the “Effect on the produced sum of (+)-costunolide, 11(S),13-dihydrocostunolide and leucodin (in words)” value ((+)-costunolide synthase; 90% CO + 10% O2, blue light 450 nm) was “inhibitory effect”, the “Percentage Enzyme Activity ± SD, Dihydrocostunolide (20)” value (“Percentage Enzyme Activity ± SD … (20)” for short) [2, 3] was 140 ± 4% and the “Formation of leucodin from (+)-costunolide, effect of inhibitors (in words)” value (leucodin biosynthesis) was “strongly inhibited”. For the same molecule, the “Percentage Enzyme Activity ± SD, Leucodin (22)” value (leucodin biosynthesis; [3]) was 8 ± 1%.
`NC(=O)C1=CN([C@@H]2O[C@H](COP(=O)(O)OP(=O)(O)OC[C@H]3O[C@@H](n4cnc5c(N)ncnc54)[C@H](O)[C@@H]3O)[C@@H](O)[C@H]2O)C=CC1` [NADH] was tested, and the “Percentage Enzyme Activity ± SD, (+)-costunolide synthase” value ((+)-costunolide synthase) was 7 ± 2%, the “Percentage Enzyme Activity ± SD … (20)” value [2, 4] was 14 ± 2% and the “Percentage Enzyme Activity ± SD, Leucodin (22)” value (leucodin biosynthesis; [4]) was 0 ± 0%.
With `NC(=O)C1=CN([C@@H]2O[C@H](COP(=O)(O)OP(=O)(O)OC[C@H]3O[C@@H](n4cnc5c(N)ncnc54)[C@H](OP(=O)(O)O)[C@@H]3O)[C@@H](O)[C@H]2O)C=CC1` [NADPH] the “Percentage Enzyme Activity ± SD, (+)-costunolide synthase” value ((+)-costunolide synthase) was 100 ± 8%, the “Percentage Enzyme Activity ± SD … (20)” value [2, 4] was “^a100 ± 3 ^ %” and the “Percentage Enzyme Activity ± SD, Leucodin (22)” value (leucodin biosynthesis; [4]) was “^a100 ± 10 ^ %”.
In the case of `Nn1nnc2ccccc21` [aminobenzotriazole], the “Reduction of the amount of measurable enzymatic products of germacrene acid” value (“Reduction of the amount … of germacrene acid” for short) ((+)-costunolide synthase; inhibitor 100 μM) is reported as 44%, the “Percentage Enzyme Activity ± SD … (20)” value [2, 5] is reported as 75 ± 8% and the “Percentage Enzyme Activity ± SD, Leucodin (22)” value (leucodin biosynthesis; [5]) is reported as 86 ± 33%.
With `[Ar]` [argon] the “Percentage Enzyme Activity ± SD, (+)-costunolide synthase, argon atmosphere” value ((+)-costunolide synthase; 1 mM NADPH + argon atmosphere) was 0 ± 0%, the “Percentage Enzyme Activity ± SD … (20)” value [2, 3] was 134 ± 6% and the “Percentage Enzyme Activity ± SD, Leucodin (22)” value (leucodin biosynthesis; [3]) was 0 ± 0%.
With `Clc1ccccc1C(c1ccccc1)(c1ccccc1)n1ccnc1` [clotrimazole] the “Reduction of the amount … of germacrene acid” value ((+)-costunolide synthase; inhibitor 100 μM) was 97%, the “Percentage Enzyme Activity ± SD … (20)” value [2, 5] was 119 ± 9% and the “Percentage Enzyme Activity ± SD, Leucodin (22)” value (leucodin biosynthesis; [5]) was 0 ± 0%.
For `C=C1CC[C@H]2C(=C)CC[C@H]3C(=C)C(=O)O[C@@H]3[C@@H]12` [dehydrocostus lactone], the “Reduction of the C11–C13 exocyclic double bond (in words)” value [2] was “not capable of doing the same” and the “Reduction of the C11–C13 exocyclic double bond (in words)” value ([2]; listed as dehydrocostuslacton) was “not reduced”.
For `C=CC1(C)CCC(C(=C)C(=O)O)CC1C(=C)C` (stereo not drawn) [elema-1,3,11(13)-trien-12-oic acid], the “Conversion of substrate analogues by the (+)-costunolide synthase (in words)” value (shortened to “Conversion of substrate analogues”) ((+)-costunolide synthase) was “no detectable conversion; also recorded: not capable of converting”.
With `CC(C)=C1C/C=C(\C)CC/C=C(\C)CC1=O` [germacrone] the “Conversion by the (+)-germacrene A hydroxylase containing microsomal pellet (in words)” value [1] was “not converted; also recorded: not accepted as a substrate; also recorded: not hydroxylated”.
In the case of `C=C(C)[C@H]1CC=C(C)CC1` [limonene], the “Conversion by the (+)-germacrene A hydroxylase containing microsomal pellet (in words)” value [1] is reported as “hardly converted; also recorded: did hardly occur”.
For `CC(C)(C(=O)c1cccnc1)c1cccnc1` [metyrapone], the “Reduction of the amount … of germacrene acid” value ((+)-costunolide synthase; inhibitor 1 mM) was 78%, the “Percentage Enzyme Activity ± SD … (20)” value [2, 6] was 87 ± 11% and the “Percentage Enzyme Activity ± SD, Leucodin (22)” value (leucodin biosynthesis; [6]) was 70 ± 16%.
In the case of `Clc1ccc(COC(Cn2ccnc2)c2ccc(Cl)cc2Cl)c(Cl)c1` (stereo not drawn) [miconazole], the “Reduction of the amount … of germacrene acid” value ((+)-costunolide synthase; inhibitor 100 μM) is reported as 71%, the “Percentage Enzyme Activity ± SD … (20)” value [2, 5] is reported as 100 ± 5% and the “Percentage Enzyme Activity ± SD, Leucodin (22)” value (leucodin biosynthesis; [5]) is reported as 0 ± 0%.
With `C=C(C(=O)O)[C@@H]1CC[C@@]2(C)CCC=C(C)[C@@H]2C1` [α-costic acid] the “Conversion of substrate analogues” value ((+)-costunolide synthase) was “not capable of converting”.
`C=C(C(=O)O)[C@@H]1CC[C@@]2(C)CCCC(C)=C2C1` [γ-costic acid] was tested, and the “Conversion of substrate analogues” value ((+)-costunolide synthase) was “not converted either”.
With “cytochrome C: established cytochrome P450 inhibitor” the “Reduction of the amount … of germacrene acid” value ((+)-costunolide synthase; inhibitor 100 μM) was “no enzymatic products of germacrene acid (4) were measured”, the “Percentage Enzyme Activity ± SD … (20)” value [2, 6] was 105 ± 5% and the “Percentage Enzyme Activity ± SD, Leucodin (22)” value (leucodin biosynthesis; [6]) was 0 ± 0%.
